Data reported in ChEMBL document CHEMBL1697781, “Assessment of the health effects of chemicals in humans: II. Construction of an adverse effects database for QSAR modeling” (Curr Drug Discov Technol, 2004).

Key:
Settings in all cases: human; call rule not given here
[1] = test system: Hepatotoxicity; experiment: FDA HLAED, liver enzyme composite activity
[2] = test system: Hepatotoxicity; experiment: FDA HLAED, gamma-glutamyl transferase (GGT) increase
[3] = test system: Hepatotoxicity; experiment: FDA HLAED, lactate dehydrogenase (LDH) increase
[4] = test system: Hepatotoxicity; experiment: FDA HLAED, serum glutamic pyruvic transaminase (SGPT) increase
[5] = test system: Hepatotoxicity; experiment: FDA HLAED, alkaline phosphatase increase
[6] = test system: Hepatotoxicity; experiment: FDA HLAED, serum glutamic oxaloacetic transaminase (SGOT) increase
For GGT Increase - Index Value in this document: reference of the scale not given here.
For LDH Increase - Index Value in this document: reference of the scale not given here.

| SMILES | Composite Activity - Active [1] | Composite Activity - Marginal [1] | Composite Activity - Score [1] | GGT Increase - Activity Score [2] | GGT Increase - Index Value [2] | GGT Increase - Number of Reports [2] | LDH Increase - Activity Score [3] | LDH Increase - Index Value [3] | LDH Increase - Number of Reports [3] | SGPT Increase - Activity Score [4] | SGPT Increase - Index Value [4] | SGPT Increase - Number of Reports [4] | Alkaline Phosphatase Increase - Activity Score [5] | Alkaline Phosphatase Increase - Index Value [5] | Alkaline Phosphatase Increase - Number of Reports [5] | SGOT Increase - Activity Score [6] | SGOT Increase - Index Value [6] | SGOT Increase - Number of Reports [6] |
| --- | --- | --- | --- | --- | --- | --- | --- | --- | --- | --- | --- | --- | --- | --- | --- | --- | --- | --- |
| CCCCCCC(=O)O[C@H]1CC[C@H]2[C@@H]3CCc4cc(O)ccc4[C@H]3CC[C@]12C [ESTRADIOL ENANTHATE] | 0 | 0 | Inactive | Inactive | 0.3 | < 4 | Inactive | 1.2 | >= 4 | Inactive | 2.1 | >= 4 | Inactive | 1.5 | >= 4 | Inactive | 2.8 | >= 4 |
| C[C@@H]1CN([C@H]2CC[C@](C#N)(c3ccc(F)cc3)CC2)CC[C@]1(C(=O)O)c1ccccc1 [LEVOCABASTINE] | 0 | 0 | Inactive | Inactive | 0 | < 4 | Inactive | 0 | < 4 | Inactive | 0 | < 4 | Inactive | 0 | < 4 | Inactive | 0 | < 4 |
| O=C(O)CCCCCCCC(=O)O [AZELAIC ACID] | 0 | 0 | Inactive | Inactive | 0 | < 4 | Inactive | 0 | < 4 | Inactive | 0 | < 4 | Inactive | 0 | < 4 | Inactive | 0 | < 4 |
| COc1c(C)c2c(c(O)c1C/C=C(\C)CCC(=O)O)C(=O)OC2 [MYCOPHENOLIC ACID] | 1 | 0 | Inactive | Inactive | 3.8 | < 4 | Inactive | 1.9 | < 4 | Active | 9.6 | >= 4 | Inactive | 5.7 | < 4 | Inactive | 3.8 | < 4 |
| COC(=O)C1=C(C)NC(C)=C(C(=O)OC(C)C)C1c1cccc2nonc12 (configuration not stated) [ISRADIPINE] | 0 | 0 | Inactive | Inactive | 0.2 | < 4 | Inactive | 0.3 | < 4 | Inactive | 0.7 | >= 4 | Inactive | 0.5 | < 4 | Inactive | 0.8 | >= 4 |
| NCC1(CC(=O)O)CCCCC1 [GABAPENTIN] | 0 | 0 | Inactive | Inactive | 0.7 | >= 4 | Inactive | 0.4 | < 4 | Inactive | 0.8 | >= 4 | Inactive | 0.7 | >= 4 | Inactive | 0.8 | >= 4 |
| CC1(C)S[C@@H]2[C@H](NC(=O)[C@H](N)c3ccc(O)cc3)C(=O)N2[C@H]1C(=O)O [AMOXICILLIN] | 0 | 0 | Inactive | Inactive | 0 | < 4 | Inactive | 0 | < 4 | Inactive | 0 | < 4 | Inactive | 0 | < 4 | Inactive | 0.1 | < 4 |
| Cc1cc2c(s1)Nc1ccccc1N=C2N1CCN(C)CC1 [OLANZAPINE] | 3 | 1 | Active | Active | 9.1 | >= 4 | Inactive | 2.1 | >= 4 | Active | 15.5 | >= 4 | Marginally Active | 3.7 | >= 4 | Active | 16.5 | >= 4 |
| CC(=O)NO [ACETOHYDROXAMIC ACID] | 0 | 0 | Inactive | Inactive | 0 | < 4 | Inactive | 0 | < 4 | Inactive | 0 | < 4 | Inactive | 0 | < 4 | Inactive | 0 | < 4 |
